Experimental findings from DBAASP are described below.

≈ marks a conversion by molar mass, not a printed value. A value given as a limit tells only on which side of the number the result lay.

As a reminder, the MIC is the lowest concentration found to suppress growth. The low end stands for greater potency, the high end for weaker potency.

Common to all, as to experiment: ≥ marks a high value that may be exact or a test limit, other limits are often not marked, values filed in µg/mL are converted to µM
Experiment [1] deals with Acinetobacter baumannii AL1851-ΔLpxA.
Experiment [2] deals with Acinetobacter baumannii ATCC 19606.
Experiment [3] concerns Acinetobacter baumannii Al1852-ΔLpxD.
Experiment [4] has as its system Citrobacter freundii DSM 30029.
For experiment [5], the system named is Escherichia coli DSM 1103.
The test system of experiment [6] is Klebsiella pneumoniae DSM 789.
Experiment [7] deals with Pseudomonas aeruginosa DSM 1117.
The test system of experiment [8] is Salmonella enterica DSM 17058.
The subject of experiment [9] is Shigella sonnei DSM 5570.
Experiment [10] concerns Staphylococcus aureus DSM 11729.
Experiment [11] relates to Staphylococcus epidermidis DSM 28319.
For experiment [12], the system named is Escherichia coli MG1655.
Experiment [13] concerns Pseudomonas aeruginosa PA7.
The subject of experiment [14] is Pseudomonas aeruginosa PAO1.
The subject of experiment [15] is Staphylococcus aureus NCTC 8325.
Experiment [16] relates to Escherichia coli K-12.
Experiment [17] has as its system Pseudomonas aeruginosa PA214.
Experiment [18] has as its system Pseudomonas aeruginosa PA330.
The subject of experiment [19] is Alcaligenes faecalis ATCC 8750.
Experiment [20] concerns Aspergillus niger.
Experiment [21] deals with Bacillus megaterium ATCC 10778.
Experiment [22] concerns Bacillus subtilis ATCC 6633.
Experiment [23] has as its system Beauveria bassiana.
Experiment [24] deals with Candida albicans MDM8.
Experiment [25] concerns Candida tropicalis IOC 4560.
Experiment [26] concerns Enterobacter cloacae beta-12.
The subject of experiment [27] is Escherichia coli D31.
The test system of experiment [28] is Escherichia coli SBS 363.
The test system of experiment [29] is Micrococcus luteus A270.
Experiment [30] concerns Microsporum canis MW768151.
The test system of experiment [31] is Microsporum canis.
The test system of experiment [32] is Proteus mirabilis.
For experiment [33], the system named is Pseudomonas aeruginosa ATCC 27853.
Experiment [34] deals with Saccharomyces cerevisiae PM340.
The subject of experiment [35] is Salmonella enterica subsp. arizonae ATCC 13314.
In experiment [36] the test system is Salmonella enterica subsp. enterica serovar Typhimurium ATCC 14028.
Experiment [37] concerns Serratia marcescens ATCC 4112.
Experiment [38] deals with Staphylococcus aureus ATCC 29213.
The test system of experiment [39] is Staphylococcus cohnii MW767053.
Experiment [40] concerns Staphylococcus haemolyticus.
Experiment [41] deals with Staphylococcus pseudintermedius MW767056.
For experiment [42], the system named is Staphylococcus pseudintermedius.
Experiment [43] concerns Staphylococcus sciuri.
The test system of experiment [44] is Staphylococcus simulans.
Experiment [45] has as its system Trichophyton mentagrophytes.
Experiment [46] has as its system Pseudomonas aeruginosa NCIB 10421.

With `CC[C@H](C)[C@H](NC(=O)[C@H](CC(=O)O)NC(=O)[C@H](Cc1c[nH]c2ccccc12)NC(=O)[C@H](CCCCN)NC(=O)[C@@H]1CCCN1C(=O)[C@H](CC(C)C)NC(=O)[C@H](CCSC)NC(=O)[C@H](Cc1ccc(O)cc1)NC(=O)[C@H](CC(C)C)NC(=O)[C@H](CC(N)=O)NC(=O)[C@@H](NC(=O)CN)[C@@H](C)O)C(=O)N1CCC[C@H]1C(N)=O` [GTNLYMLPKWDIP], the minimum inhibitory concentration (MIC) in experiment [1] is 16 µM (≈ 24.7 µg/mL); in experiment [2], 32 µM (≈ 49.5 µg/mL); in experiment [3] it was ≥ 32 µM; in experiment [4], 4 µM (≈ 6.19 µg/mL); in experiment [5], 8 µM (≈ 12.4 µg/mL); in experiment [6] it was ≥ 32 µM. For the same compound, the MIC is 1 µM (≈ 1.55 µg/mL) in experiment [7]; 16 µM (≈ 24.7 µg/mL) in [8]; 2 µM (≈ 3.09 µg/mL) in experiment [9]; 16 µM (≈ 24.7 µg/mL) in experiment [10]; 0.5 µM (≈ 0.773 µg/mL) in [11].
On to `CC[C@H](C)[C@H](N)C(=O)N[C@@H](CCCCN)C(=O)N[C@H](C(=O)N1CCC[C@H]1C(=O)N[C@@H](C)C(=O)N[C@H](C(=O)N[C@H](C(=O)N[C@@H](CCCCN)C(=O)N[C@@H](CC(=O)O)C(=O)N[C@H](C(=O)N[C@@H](CCC(N)=O)C(=O)N[C@@H](CCCCN)C(=O)N[C@@H](CCCCN)C(=O)N[C@H](C(=O)N[C@@H](C)C(=O)N[C@@H](CCCCN)C(=O)NCC(=O)N[C@H](C(=O)N[C@H](C(=O)N[C@@H](CO)C(=O)N[C@H](C(=O)N[C@H](C(=O)N[C@@H](C)C(=O)N[C@@H](CC(=O)O)C(=O)N[C@@H](C)C(=O)N[C@@H](CC(C)C)C(=O)N[C@@H](CO)C(=O)N[C@@H](CCCCN)C(=O)N[C@@H](CO)C(=O)O)C(C)C)[C@@H](C)O)[C@@H](C)CC)C(C)C)C(C)C)[C@@H](C)O)C(C)C)[C@@H](C)CC)C(C)C` [IKVPAIVKDTQKKVAKGVISTVADALSKS], for which the MIC in experiment [12] was ≥ 512 µM; in experiment [13] it was ≥ 512 µM; in experiment [14], > 512 µM; in [15] it was ≥ 512 µM.
For `CC(C)C[C@H](NC(=O)[C@H](C)NC(=O)[C@H](CCCCN)NC(=O)[C@H](Cc1ccccc1)NC(=O)[C@H](CC(C)C)NC(=O)[C@H](CCCCN)NC(=O)[C@H](C)NC(=O)[C@H](Cc1c[nH]c2ccccc12)NC(=O)[C@H](C)NC(=O)[C@H](CCCCN)NC(=O)[C@H](CC(C)C)NC(=O)[C@H](Cc1ccccc1)NC(=O)[C@H](CCCCN)NC(=O)[C@H](CCCCN)NC(=O)[C@H](CC(C)C)NC(=O)[C@H](C)NC(=O)[C@@H](N)CCCCN)C(N)=O` [KALKKFLKAWAKLFKAL], the minimal inhibitory concentration (MIC) came out at 1.6 µM (≈ 3.21 µg/mL) in [16], 3.1 µM (≈ 6.21 µg/mL) in experiment [17], 6.3 µM (≈ 12.6 µg/mL) in experiment [18] and 3.1 µM (≈ 6.21 µg/mL) in experiment [14].
Take `CC(C)[C@H](N)C(=O)N[C@@H](C)C(=O)N[C@@H](CCC(=O)O)C(=O)N[C@@H](C)C(=O)N[C@@H](CCCN=C(N)N)C(=O)N[C@@H](CCC(N)=O)C(=O)NCC(=O)N[C@@H](CO)C(=O)N[C@@H](Cc1ccccc1)C(=O)N[C@@H](CO)C(=O)N[C@@H](Cc1ccc(O)cc1)C(=O)O` [VAEARQGSFSY]: the minimum inhibitory concentration (MIC) in experiment [19] was 12.5 µM (≈ 15.2 µg/mL); in [20], 25 µM (≈ 30.3 µg/mL); in experiment [21] it was 12.5 µM (≈ 15.2 µg/mL); in experiment [22] it was 25 µM (≈ 30.3 µg/mL); in experiment [23], 25 µM (≈ 30.3 µg/mL); in experiment [24], 25 µM (≈ 30.3 µg/mL). Further, the MIC in experiment [25] stood at 25 µM (≈ 30.3 µg/mL); in experiment [26] it was 25 µM (≈ 30.3 µg/mL); in experiment [27], 12.5 µM (≈ 15.2 µg/mL); in [28], 25 µM (≈ 30.3 µg/mL); in experiment [29] it was 6.24 µM (≈ 7.58 µg/mL); in experiment [30], 0.412 µM (≈ 0.5 µg/mL). Moreover, the MIC was 0.824 µM (≈ 1 µg/mL) in [31]; ≥ 211 µM in experiment [32]; 12.5 µM (≈ 15.2 µg/mL) in [33]; 25 µM (≈ 30.3 µg/mL) in experiment [34]; 25 µM (≈ 30.3 µg/mL) in experiment [35]; 12.5 µM (≈ 15.2 µg/mL) in [36]. Also, the MIC in [37] was 25 µM (≈ 30.3 µg/mL); in [38] it was 6.24 µM (≈ 7.58 µg/mL); in experiment [39] it was ≥ 211 µM; in experiment [40], ≥ 211 µM; in [41], ≥ 105 µM; in [42], ≥ 105 µM. Also, the MIC in experiment [43] is ≥ 211 µM; in [44] it was ≥ 105 µM; in experiment [45], 0.412 µM (≈ 0.5 µg/mL).
`CC[C@H](C)[C@H](NC(=O)CNC(=O)[C@H](CCC(=O)O)NC(=O)[C@H](Cc1c[nH]c2ccccc12)NC(=O)[C@@H](NC(=O)[C@H](CCCCN)NC(=O)CNC(=O)[C@H](CC(C)C)NC(=O)[C@@H](N)Cc1c[nH]c2ccccc12)[C@@H](C)CC)C(=O)N[C@@H](CCCCN)C(=O)N[C@@H](CO)C(=O)N[C@@H](CC(C)C)C(=O)N[C@@H](Cc1ccccc1)C(N)=O` [WLGKIWEGIKSLF]: the minimal inhibitory concentration (MIC) is 0.78 µM (≈ 1.23 µg/mL) in [21]; 0.78 µM (≈ 1.23 µg/mL) in [22]; 3.13 µM (≈ 4.93 µg/mL) in experiment [24]; 1.56 µM (≈ 2.46 µg/mL) in [25]; 12.5 µM (≈ 19.7 µg/mL) in experiment [26]; 1.56 µM (≈ 2.46 µg/mL) in experiment [28]. The MIC in [29] was 0.78 µM (≈ 1.23 µg/mL); in experiment [46], 12.5 µM (≈ 19.7 µg/mL); in experiment [37], 0.78 µM (≈ 1.23 µg/mL); in experiment [38], 1.6 µM (≈ 2.52 µg/mL).
